Data reported in ChEMBL document CHEMBL1137638, “TEM-158 (CMT-9), a new member of the CMT-type extended-spectrum beta-lactamases” (Antimicrob Agents Chemother, 2007).
pIC50: −log10 of the molar value. ≈ marks a conversion by molar mass, not a printed value.

What was measured:
Escherichia coli [1] = assay: Antibacterial activity against Escherichia coli BER1 producing beta-lactamase pI 5.2 and pI 5.4 by microdilution method; type: functional
Escherichia coli [2] = assay: Antibacterial activity against rifampin-resistant Escherichia coli C600 transconjugant producing beta-lactamase of pI 5.2 by microdilution method; type: functional
Escherichia coli [3] = assay: Antibacterial activity against Escherichia coli DH5alpha producing beta-lactamase TEM-158 by microdilution method; type: functional
Escherichia coli [4] = assay: Antibacterial activity against Escherichia coli DH5alpha producing beta-lactamase TEM-12 by microdilution method; type: functional
Escherichia coli [5] = assay: Antibacterial activity against Escherichia coli DH5alpha producing beta-lactamase TEM-35 by microdilution method; type: functional
Escherichia coli [6] = assay: Antibacterial activity against Escherichia coli DH5alpha producing beta-lactamase TEM-1 by microdilution method; type: functional
Escherichia coli [7] = assay: Antibacterial activity against Escherichia coli DH5alpha by microdilution method; type: functional
Escherichia coli [8] = assay: Antibacterial activity against rifampin-resistant Escherichia coli C600 by microdilution method; type: functional
[9] = Inhibition of Escherichia coli DH5alpha beta-lactamase TEM-12
[10] = Inhibition of Escherichia coli CF0042 beta-lactamase TEM-35
[11] = Inhibition of Escherichia coli DH5alpha CL1179 clone beta-lactamase TEM-152 after 10 mins
[12] = Inhibition of Escherichia coli DH10B beta-lactamase TEM-121 after 10 mins; parameters: species or system Escherichia coli str. K-12 substr. DH10B
[13] = Inhibition of Escherichia coli TO799 beta-lactamase TEM-125 after 10 mins

| SMILES | MIC (Escherichia coli [1]) | MIC (Escherichia coli [2]) | MIC (Escherichia coli [3]) | MIC (Escherichia coli [4]) | MIC (Escherichia coli [5]) | MIC (Escherichia coli [6]) | MIC (Escherichia coli [7]) | MIC (Escherichia coli [8]) | pIC50 [9] | pIC50 [10] | pIC50 [11] | pIC50 [12] | pIC50 [13] |
| --- | --- | --- | --- | --- | --- | --- | --- | --- | --- | --- | --- | --- | --- |
| CO/N=C(\C(=O)N[C@@H]1C(=O)N2C(C(=O)[O-])=C(C[N+]3(C)CCCC3)CS[C@H]12)c1csc(N)n1 | 4 µg/mL (≈ 8.32 µM) | 4 µg/mL (≈ 8.32 µM) | 4 µg/mL (≈ 8.32 µM) | 1 µg/mL (≈ 2.08 µM) | < 0.06 µg/mL | < 0.06 µg/mL | < 0.06 µg/mL | < 0.06 µg/mL |  |  |  |  |  |
| CC1(C)S[C@@H]2[C@H](NC(=O)[C@H](N)c3ccc(O)cc3)C(=O)N2[C@H]1C(=O)O [AMOXICILLIN] | > 2050 µg/mL | > 2050 µg/mL | > 2050 µg/mL | > 2050 µg/mL | > 2050 µg/mL | > 2050 µg/mL | 4 µg/mL (≈ 10.9 µM) | 4 µg/mL (≈ 10.9 µM) |  |  |  |  |  |
| C[C@H]1[C@H](NC(=O)/C(=N\OC(C)(C)C(=O)O)c2csc(N)n2)C(=O)N1S(=O)(=O)O [AZTREONAM] | 1 µg/mL (≈ 2.3 µM) | 1 µg/mL (≈ 2.3 µM) | 1 µg/mL (≈ 2.3 µM) | 4 µg/mL (≈ 9.19 µM) |  |  |  |  |  |  |  |  |  |
| CO/N=C(\C(=O)N[C@@H]1C(=O)N2C(C(=O)O)=C(COC(C)=O)CS[C@H]12)c1csc(N)n1 [CEFOTAXIME] | 0.25 µg/mL (≈ 0.549 µM) | 0.25 µg/mL (≈ 0.549 µM) | 0.25 µg/mL (≈ 0.549 µM) | 0.12 µg/mL (≈ 0.263 µM) | 0.06 µg/mL (≈ 0.132 µM) | 0.06 µg/mL (≈ 0.132 µM) | 0.06 µg/mL (≈ 0.132 µM) | 0.06 µg/mL (≈ 0.132 µM) |  |  |  |  |  |
| CO[C@@]1(NC(=O)Cc2cccs2)C(=O)N2C(C(=O)O)=C(COC(N)=O)CS[C@@H]21 [CEFOXITIN] | 0.25 µg/mL (≈ 0.585 µM) | 4 µg/mL (≈ 9.36 µM) | 4 µg/mL (≈ 9.36 µM) | 4 µg/mL (≈ 9.36 µM) | 4 µg/mL (≈ 9.36 µM) | 4 µg/mL (≈ 9.36 µM) | 4 µg/mL (≈ 9.36 µM) | 4 µg/mL (≈ 9.36 µM) |  |  |  |  |  |
| CC(C)(O/N=C(\C(=O)N[C@@H]1C(=O)N2C(C(=O)[O-])=C(C[n+]3ccccc3)CS[C@H]12)c1csc(N)n1)C(=O)O [CEFTAZIDIME] | 16 µg/mL (≈ 29.3 µM) | 16 µg/mL (≈ 29.3 µM) | 32 µg/mL (≈ 58.5 µM) | 32 µg/mL (≈ 58.5 µM) | 0.25 µg/mL (≈ 0.457 µM) | 0.12 µg/mL (≈ 0.22 µM) | 0.12 µg/mL (≈ 0.22 µM) | 0.12 µg/mL (≈ 0.22 µM) |  |  |  |  |  |
| CO/N=C(\C(=O)N[C@@H]1C(=O)N2C(C(=O)O)=C(COC(N)=O)CS[C@H]12)c1ccco1 [CEFUROXIME] | 8 µg/mL (≈ 18.9 µM) | 4 µg/mL (≈ 9.43 µM) | 8 µg/mL (≈ 18.9 µM) | 8 µg/mL (≈ 18.9 µM) | 8 µg/mL (≈ 18.9 µM) | 4 µg/mL (≈ 9.43 µM) | 4 µg/mL (≈ 9.43 µM) | 4 µg/mL (≈ 9.43 µM) |  |  |  |  |  |
| CC(=O)OCC1=C(C(=O)O)N2C(=O)[C@@H](NC(=O)Cc3cccs3)[C@H]2SC1 [CEPHALOTHIN] | 32 µg/mL (≈ 80.7 µM) | 16 µg/mL (≈ 40.4 µM) | 32 µg/mL (≈ 80.7 µM) | 8 µg/mL (≈ 20.2 µM) | 16 µg/mL (≈ 40.4 µM) | 4 µg/mL (≈ 10.1 µM) | 4 µg/mL (≈ 10.1 µM) | 4 µg/mL (≈ 10.1 µM) |  |  |  |  |  |
| O=C(O)[C@H]1/C(=C/CO)O[C@@H]2CC(=O)N21 [CLAVULANIC ACID] |  |  |  |  |  |  |  |  | 7.70 | 4.57 | 6.00 | 6.00 | 4.87 |
| C[C@@H](O)[C@H]1C(=O)N2C(C(=O)O)=C(SCCNC=N)C[C@H]12 [IMIPENEM ANHYDROUS] |  |  |  | 0.25 µg/mL (≈ 0.835 µM) |  |  |  |  |  |  |  |  |  |
| CCN1CCN(C(=O)N[C@@H](C(=O)N[C@@H]2C(=O)N3[C@@H]2SC(C)(C)[C@@H]3C(=O)O)c2ccccc2)C(=O)C1=O [PIPERACILLIN] | 2050 µg/mL (≈ 3960 µM) | 2050 µg/mL (≈ 3960 µM) | 2050 µg/mL (≈ 3960 µM) | > 2050 µg/mL | > 2050 µg/mL | 512 µg/mL (≈ 989 µM) | 2 µg/mL (≈ 3.86 µM) | 2 µg/mL (≈ 3.86 µM) |  |  |  |  |  |
| C[C@]1(Cn2ccnn2)[C@H](C(=O)O)N2C(=O)C[C@H]2S1(=O)=O [TAZOBACTAM] |  |  |  |  |  |  |  |  | 6.89 | 5.74 |  |  |  |
| CC1(C)S[C@@H]2[C@H](NC(=O)[C@H](C(=O)O)c3ccsc3)C(=O)N2[C@H]1C(=O)O [TICARCILLIN] | > 2050 µg/mL | > 2050 µg/mL | > 2050 µg/mL | > 2050 µg/mL | > 2050 µg/mL | > 2050 µg/mL | 2 µg/mL (≈ 5.2 µM) | 2 µg/mL (≈ 5.2 µM) |  |  |  |  |  |
